In the OligoGym collection:
Oligonucleotides are written 5' to 3', each unit as a sugar letter and its base; * is a phosphorothioate linkage, no mark a phosphodiester; rarer units and linkages stand in square brackets, end groups in braces. Plain capitals give the bases only. d = 2'-deoxy (DNA); r = 2'-OH (RNA)

These substances were tested against UBE2S (assay: reporter assay of Huesken 2005). Conditions: siRNA.
Also: test concentration or dose not given here.

Q: With “sense rUrCrUrGrUrUrCrCrGrCrArUrGrArArArCrUrCdTdT / antisense rGrArGrUrUrUrCrArUrGrCrGrGrArArCrArGrAdCdC” as the substance, how does the normalised inhibition (eCFP-eYFP dual reporter) read?
A: 42.3%

Q: With “sense rUrGrArArArCrUrCrCrUrGrCrUrGrGrGrGrArAdTdT / antisense rUrUrCrCrCrCrArGrCrArGrGrArGrUrUrUrCrAdTdG” as the substance, how does the normalised inhibition (eCFP-eYFP dual reporter) read?
A: 54%

Q: With “sense rUrGrCrGrUrCrArArCrGrUrGrCrUrCrArArGrAdTdT / antisense rUrCrUrUrGrArGrCrArCrGrUrUrGrArCrGrCrAdGdA” as the substance, how does the normalised inhibition (eCFP-eYFP dual reporter) read?
A: 74.5%

Q: How did the normalised inhibition (eCFP-eYFP dual reporter) turn out when “sense rUrGrCrUrCrUrUrGrGrArGrArArCrUrArCrGrAdTdT / antisense rUrCrGrUrArGrUrUrCrUrCrCrArArGrArGrCrAdGdG” was run?
A: 77.8%

Q: Which normalised inhibition (eCFP-eYFP dual reporter) does the source give for “sense rUrGrGrArGrGrUrCrUrGrUrUrCrCrGrCrArUrGdTdT / antisense rCrArUrGrCrGrGrArArCrArGrArCrCrUrCrCrAdGdC” here?
A: 58.5%

Q: Which normalised inhibition (eCFP-eYFP dual reporter) does the source give for “sense rUrGrGrCrGrArGrArUrCrUrGrCrGrUrCrArArCdTdT / antisense rGrUrUrGrArCrGrCrArGrArUrCrUrCrGrCrCrAdTdT” here?
A: 85.6%

Q: Which normalised inhibition (eCFP-eYFP dual reporter) does the source give for “sense rUrUrCrCrCrArArCrGrArGrGrArGrGrArCrCrUdTdT / antisense rArGrGrUrCrCrUrCrCrUrCrGrUrUrGrGrGrArAdAdG” here?
A: 41.6%

The substances below were run against UBE2W (assay: reporter assay of Huesken 2005). Conditions: siRNA.

Q: How did the normalised inhibition (eCFP-eYFP dual reporter) turn out when “sense rArArArArUrArUrUrCrCrUrGrUrUrCrArUrCrCdTdT / antisense rGrGrArUrGrArArCrArGrGrArArUrArUrUrUrUdCdA” was run?
A: 53.5%

Q: Which normalised inhibition (eCFP-eYFP dual reporter) does the source give for “sense rArArArArUrUrCrArArUrUrArCrArCrArGrUrGdTdT / antisense rCrArCrUrGrUrGrUrArArUrUrGrArArUrUrUrUdGdA” here?
A: 76.8%

Q: How did the normalised inhibition (eCFP-eYFP dual reporter) turn out when “sense rArArCrUrUrCrUrArUrUrUrArArArUrUrUrArGdTdT / antisense rCrUrArArArUrUrUrArArArUrArGrArArGrUrUdGdA” was run?
A: 96.1%

Q: Which normalised inhibition (eCFP-eYFP dual reporter) does the source give for “sense rArArGrArGrArCrGrArCrCrArCrCrGrGrArUrAdTdT / antisense rUrArUrCrCrGrGrUrGrGrUrCrGrUrCrUrCrUrUdTdT” here?
A: 82.7%

Q: How did the normalised inhibition (eCFP-eYFP dual reporter) turn out when “sense rArArGrArGrUrGrUrUrCrArArArArUrUrCrArAdTdT / antisense rUrUrGrArArUrUrUrUrGrArArCrArCrUrCrUrUdCdT” was run?
A: 114%

Q: “sense rArArUrCrArGrUrUrUrGrUrCrUrUrArGrCrArUdTdT / antisense rArUrGrCrUrArArGrArCrArArArCrUrGrArUrUdGdG” was tested. Which normalised inhibition (eCFP-eYFP dual reporter) did it give?
A: 104%

Q: How did the normalised inhibition (eCFP-eYFP dual reporter) turn out when “sense rArArUrUrArCrArCrArGrUrGrGrArUrUrGrUrAdTdT / antisense rUrArCrArArUrCrCrArCrUrGrUrGrUrArArUrUdGdA” was run?
A: 112%

Q: How did the normalised inhibition (eCFP-eYFP dual reporter) turn out when “sense rArArUrUrUrCrArArCrUrUrCrUrArUrUrUrArAdTdT / antisense rUrUrArArArUrArGrArArGrUrUrGrArArArUrUdTdT” was run?
A: 97.5%

Q: How did the normalised inhibition (eCFP-eYFP dual reporter) turn out when “sense rArCrArCrArGrUrGrGrArUrUrGrUrArGrArCrAdTdT / antisense rUrGrUrCrUrArCrArArUrCrCrArCrUrGrUrGrUdAdA” was run?
A: 99.3%

Q: For “sense rArCrArGrUrGrGrArUrUrGrUrArGrArCrArUrGdTdT / antisense rCrArUrGrUrCrUrArCrArArUrCrCrArCrUrGrUdGdT”, which normalised inhibition (eCFP-eYFP dual reporter) is on record?
A: 110%

Q: For “sense rArCrCrArCrCrGrGrArUrArArUrUrCrUrUrUrUdTdT / antisense rArArArArGrArArUrUrArUrCrCrGrGrUrGrGrUdCdG”, which normalised inhibition (eCFP-eYFP dual reporter) is on record?
A: 96.7%

Q: For “sense rArCrUrGrGrUrCrCrCrCrArGrCrGrCrUrCrUrCdTdT / antisense rGrArGrArGrCrGrCrUrGrGrGrGrArCrCrArGrUdCdT”, which normalised inhibition (eCFP-eYFP dual reporter) is on record?
A: 93.1%

Q: For “sense rArGrArArGrArCrUrGrGrUrCrCrCrCrArGrCrGdTdT / antisense rCrGrCrUrGrGrGrGrArCrCrArGrUrCrUrUrCrUdGdT”, which normalised inhibition (eCFP-eYFP dual reporter) is on record?
A: 88.4%

Q: For “sense rArGrArArUrCrCrArArArGrArArArArCrArArAdTdT / antisense rUrUrUrGrUrUrUrUrCrUrUrUrGrGrArUrUrCrUdTdG”, which normalised inhibition (eCFP-eYFP dual reporter) is on record?
A: 106%

Q: With “sense rArGrArGrUrGrUrUrCrArArArArUrUrCrArArUdTdT / antisense rArUrUrGrArArUrUrUrUrGrArArCrArCrUrCrUdTdC” as the substance, how does the normalised inhibition (eCFP-eYFP dual reporter) read?
A: 109%

Q: For “sense rArGrCrArUrUrArUrUrArGrCrArUrGrCrUrUrUdTdT / antisense rArArArGrCrArUrGrCrUrArArUrArArUrGrCrUdAdA”, which normalised inhibition (eCFP-eYFP dual reporter) is on record?
A: 84.8%

Q: With “sense rArGrGrUrGrCrArCrCrArGrGrUrArCrCrUrUrAdTdT / antisense rUrArArGrGrUrArCrCrUrGrGrUrGrCrArCrCrUdTdC” as the substance, how does the normalised inhibition (eCFP-eYFP dual reporter) read?
A: 93.2%

Q: With “sense rArGrUrArGrUrCrGrArUrArUrCrCrUrUrUrUrGdTdT / antisense rCrArArArArGrGrArUrArUrCrGrArCrUrArCrUdAdA” as the substance, how does the normalised inhibition (eCFP-eYFP dual reporter) read?
A: 124%

Q: With “sense rArGrUrCrGrArUrArUrCrCrUrUrUrUrGrArCrUdTdT / antisense rArGrUrCrArArArArGrGrArUrArUrCrGrArCrUdAdC” as the substance, how does the normalised inhibition (eCFP-eYFP dual reporter) read?
A: 81.4%

Q: With “sense rArUrCrArGrUrUrUrGrUrCrUrUrArGrCrArUrUdTdT / antisense rArArUrGrCrUrArArGrArCrArArArCrUrGrArUdTdG” as the substance, how does the normalised inhibition (eCFP-eYFP dual reporter) read?
A: 107%

Q: Which normalised inhibition (eCFP-eYFP dual reporter) does the source give for “sense rArUrCrCrUrCrArUrGrUrUrUrArUrArGrCrArAdTdT / antisense rUrUrGrCrUrArUrArArArCrArUrGrArGrGrArUdGdA” here?
A: 104%

Q: For “sense rArUrCrUrGrUrUrUrArUrCrCrArUrUrCrUrArAdTdT / antisense rUrUrArGrArArUrGrGrArUrArArArCrArGrArUdAdT”, which normalised inhibition (eCFP-eYFP dual reporter) is on record?
A: 96.6%

Q: “sense rArUrGrArCrCrUrUrArArArUrGrArGrArArGrAdTdT / antisense rUrCrUrUrCrUrCrArUrUrUrArArGrGrUrCrArUdTdC” was tested. Which normalised inhibition (eCFP-eYFP dual reporter) did it give?
A: 68.9%

Q: Which normalised inhibition (eCFP-eYFP dual reporter) does the source give for “sense rArUrGrGrArArGrGrUrGrCrArCrCrArGrGrUrAdTdT / antisense rUrArCrCrUrGrGrUrGrCrArCrCrUrUrCrCrArUdGdT” here?
A: 86.1%

Q: For “sense rArUrGrUrGrCrGrArArCrArUrGrUrArArCrArAdTdT / antisense rUrUrGrUrUrArCrArUrGrUrUrCrGrCrArCrArUdAdA”, which normalised inhibition (eCFP-eYFP dual reporter) is on record?
A: 88.7%

Q: For “sense rArUrGrUrUrUrArUrArGrCrArArUrGrGrUrCrAdTdT / antisense rUrGrArCrCrArUrUrGrCrUrArUrArArArCrArUdGdA”, which normalised inhibition (eCFP-eYFP dual reporter) is on record?
A: 96.2%

Q: With “sense rArUrUrArGrCrArUrGrCrUrUrUrCrCrArGrCrUdTdT / antisense rArGrCrUrGrGrArArArGrCrArUrGrCrUrArArUdAdA” as the substance, how does the normalised inhibition (eCFP-eYFP dual reporter) read?
A: 67.5%

Q: For “sense rCrArArGrGrArArArArGrArGrArCrGrArCrCrAdTdT / antisense rUrGrGrUrCrGrUrCrUrCrUrUrUrUrCrCrUrUrGdCdA”, which normalised inhibition (eCFP-eYFP dual reporter) is on record?
A: 110%

Q: How did the normalised inhibition (eCFP-eYFP dual reporter) turn out when “sense rCrArCrArGrUrGrGrArUrUrGrUrArGrArCrArUdTdT / antisense rArUrGrUrCrUrArCrArArUrCrCrArCrUrGrUrGdTdA” was run?
A: 115%

Q: “sense rCrArGrUrCrCrArArUrCrArGrUrUrUrGrUrCrUdTdT / antisense rArGrArCrArArArCrUrGrArUrUrGrGrArCrUrGdAdG” was tested. Which normalised inhibition (eCFP-eYFP dual reporter) did it give?
A: 122%
